According to ChEMBL document CHEMBL1909046, “DrugMatrix in vitro pharmacology data”:

Experiments:
[1] = target: Epidermal growth factor receptor (Homo sapiens, UniProt P00533); experiment: DRUGMATRIX: Protein Tyrosine Kinase, EGF Receptor enzyme inhibition (substrate: Poly(Glu:Tyr)); format: cell-based, Insect cells; conditions: Not Active = under 50% inhibition at 10 µM
[2] = DRUGMATRIX: Potassium Channel [KATP] radioligand binding (ligand: [3H] Glyburide); format: cell membranes, Membrane; conditions: hit-t15; Not Active = under 50% inhibition at 10 µM
[3] = target: 5-hydroxytryptamine receptor 4 (Cavia porcellus, UniProt O70528); format: cell membranes, Dunkin-Hartley, Striatum, Membrane; also: in other assays of this panel Not Active means under 50% inhibition at 10 µM
Sequence of 5-hydroxytryptamine receptor 4 (O70528 whole entry): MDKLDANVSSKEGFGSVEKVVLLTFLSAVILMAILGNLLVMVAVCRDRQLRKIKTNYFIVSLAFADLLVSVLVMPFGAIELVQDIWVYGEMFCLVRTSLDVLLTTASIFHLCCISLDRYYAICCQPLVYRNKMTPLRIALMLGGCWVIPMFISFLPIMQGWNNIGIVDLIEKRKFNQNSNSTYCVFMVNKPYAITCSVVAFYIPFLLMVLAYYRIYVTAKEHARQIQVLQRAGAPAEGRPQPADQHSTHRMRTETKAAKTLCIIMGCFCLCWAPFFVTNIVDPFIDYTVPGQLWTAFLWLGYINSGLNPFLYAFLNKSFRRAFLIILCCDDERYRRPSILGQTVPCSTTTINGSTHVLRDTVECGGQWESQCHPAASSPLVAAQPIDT

[4] = DRUGMATRIX: Glutamate, NMDA, Agonism radioligand binding (ligand: [3H] CGP-39653); format: cell membranes, Rattus norvegicus, Wistar, Cerebral cortex, Membrane; conditions: Not Active = under 50% inhibition at 10 µM
[5] = DRUGMATRIX: GABAA, Flunitrazepam, Central radioligand binding (ligand: [3H] Flunitrazepam); format: cell membranes, Rattus norvegicus, Wistar, Brain, Membrane; conditions: Not Active = under 50% inhibition at 10 µM
[6] = target: Beta-1 adrenergic receptor (Homo sapiens, UniProt P08588); experiment: DRUGMATRIX: Adrenergic beta1 radioligand binding (ligand: [125I] Cyanopindolol); format: cell membranes, CHO-K1, Membrane; conditions: cho-k1; Not Active = under 50% inhibition at 10 µM
Sequence of Beta-1 adrenergic receptor (P08588 whole entry): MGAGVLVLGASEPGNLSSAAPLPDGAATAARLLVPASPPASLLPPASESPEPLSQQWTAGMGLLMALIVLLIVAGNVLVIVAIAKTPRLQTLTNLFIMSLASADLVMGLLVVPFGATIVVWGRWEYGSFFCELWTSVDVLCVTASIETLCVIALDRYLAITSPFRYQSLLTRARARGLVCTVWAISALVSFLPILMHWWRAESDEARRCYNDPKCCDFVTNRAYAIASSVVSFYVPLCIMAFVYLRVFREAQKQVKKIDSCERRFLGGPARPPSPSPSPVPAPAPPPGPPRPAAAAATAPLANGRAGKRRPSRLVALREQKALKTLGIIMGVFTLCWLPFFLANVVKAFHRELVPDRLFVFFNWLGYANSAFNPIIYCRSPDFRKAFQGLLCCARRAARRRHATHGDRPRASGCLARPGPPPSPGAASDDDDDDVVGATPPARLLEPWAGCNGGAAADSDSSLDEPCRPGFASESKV

Sequence of Epidermal growth factor receptor (P00533 whole entry): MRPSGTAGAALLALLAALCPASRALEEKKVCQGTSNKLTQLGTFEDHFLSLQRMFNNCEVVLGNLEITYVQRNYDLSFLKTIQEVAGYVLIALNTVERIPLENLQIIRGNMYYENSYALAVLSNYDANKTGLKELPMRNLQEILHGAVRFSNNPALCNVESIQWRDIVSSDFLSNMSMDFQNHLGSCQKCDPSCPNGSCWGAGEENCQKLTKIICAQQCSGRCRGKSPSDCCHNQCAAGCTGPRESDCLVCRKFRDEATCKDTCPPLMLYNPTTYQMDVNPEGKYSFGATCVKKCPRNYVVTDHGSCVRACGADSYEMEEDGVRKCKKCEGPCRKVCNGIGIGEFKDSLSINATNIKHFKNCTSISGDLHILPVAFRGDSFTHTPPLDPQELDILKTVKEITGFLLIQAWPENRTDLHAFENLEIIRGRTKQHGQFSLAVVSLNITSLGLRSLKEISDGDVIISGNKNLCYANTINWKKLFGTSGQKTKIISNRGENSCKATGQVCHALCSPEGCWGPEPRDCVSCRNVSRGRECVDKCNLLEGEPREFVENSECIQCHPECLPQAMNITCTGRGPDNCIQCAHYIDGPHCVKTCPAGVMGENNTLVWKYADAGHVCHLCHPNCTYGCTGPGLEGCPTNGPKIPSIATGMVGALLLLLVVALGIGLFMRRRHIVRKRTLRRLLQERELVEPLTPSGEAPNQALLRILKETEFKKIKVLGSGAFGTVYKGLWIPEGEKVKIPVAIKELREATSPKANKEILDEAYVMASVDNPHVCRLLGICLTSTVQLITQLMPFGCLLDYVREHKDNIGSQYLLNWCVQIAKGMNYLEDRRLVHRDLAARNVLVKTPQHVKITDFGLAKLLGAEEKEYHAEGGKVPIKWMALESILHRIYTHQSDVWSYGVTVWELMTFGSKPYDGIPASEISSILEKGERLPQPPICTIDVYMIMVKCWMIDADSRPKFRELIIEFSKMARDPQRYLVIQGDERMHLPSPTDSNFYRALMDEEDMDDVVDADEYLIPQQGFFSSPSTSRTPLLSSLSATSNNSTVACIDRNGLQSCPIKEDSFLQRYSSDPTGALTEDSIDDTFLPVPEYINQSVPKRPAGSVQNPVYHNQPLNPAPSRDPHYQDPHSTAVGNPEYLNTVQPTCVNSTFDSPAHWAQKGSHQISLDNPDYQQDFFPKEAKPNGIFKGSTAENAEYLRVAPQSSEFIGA

SMILES: CCCOc1ccccc1-c1nc2nn[nH]c2c(=O)[nH]1 [ZAPRINAST]
- IC50 ([1]; insect cells): Not Active
- IC50 [2]: Not Active
- Ki [2]: Not Active
- IC50 [3]: Not Active
- IC50 [4]: Not Active
- Ki [4]: Not Active
- IC50 [5]: Not Active
- Ki [5]: Not Active
- IC50 [6]: Not Active

SMILES: CC[C@]1(O)C[C@H]2CN(CCc3c([nH]c4ccccc34)[C@@](C(=O)OC)(c3cc4c(cc3OC)N(C=O)[C@H]3[C@@](O)(C(=O)OC)[C@H](OC(C)=O)[C@]5(CC)C=CCN6CC[C@]43[C@@H]65)C2)C1 [VINCRISTINE]
- IC50 ([1]; insect cells): Not Active
- IC50 [2]: Not Active
- Ki [2]: Not Active
- IC50 [3]: Not Active
- IC50 [4]: Not Active
- Ki [4]: Not Active
- IC50 [5]: Not Active
- Ki [5]: Not Active
- IC50 [6]: Not Active

SMILES: COc1c(C)c2c(c(O)c1C/C=C(\C)CCC(=O)O)C(=O)OC2 [MYCOPHENOLIC ACID]
- IC50 ([1]; insect cells): Not Active
- IC50 [2]: Not Active
- Ki [2]: Not Active
- IC50 [3]: Not Active
- IC50 [4]: Not Active
- Ki [4]: Not Active
- IC50 [5]: Not Active
- Ki [5]: Not Active
- IC50 [6]: Not Active

SMILES: CSc1ccc(/C=C2/C(C)=C(CC(=O)O)c3cc(F)ccc32)cc1 [SULINDAC SULFIDE]
- IC50 ([1]; read-out: IC50): 24 µM
- IC50 [2]: Not Active
- Ki [2]: Not Active
- IC50 [3]: Not Active
- IC50 [4]: Not Active
- Ki [4]: Not Active
- IC50 [5]: Not Active
- Ki [5]: Not Active
- IC50 [6]: Not Active

SMILES: O=NN(CCCl)C(=O)NC1CCCCC1 [LOMUSTINE]
- IC50 ([1]; insect cells): Not Active
- IC50 [2]: Not Active
- Ki [2]: Not Active
- IC50 [3]: Not Active
- IC50 [4]: Not Active
- Ki [4]: Not Active
- IC50 [5]: Not Active
- Ki [5]: Not Active
- IC50 [6]: Not Active
